In patent publication US6864068B2, “Antifungal proteins” (Syngenta Limited, priority 1995, dated 2005):

How the values were obtained:
Assay type in all cases: cell-based
F culmorum [1] = experiment: Specific antifungal activity of Rs-AFP2 isoforms in SMF− and SMF+ media; parameters: IC50 SMF− / IC50 SMF+: unit not given here
Experimental: For each isoform, two independent purifications were carried out and the antifungal activity was determined in duplicate using F culmorum as a test fungus in two different media: a low ionic strength medium called SMF-(Terras et al, 1992, J Biol Chem, 267:15301-15309) and the same medium supplemented with 1 mM CaCl2 and 50 mM KCl called SMF+. The presence of salts in the test medium, especially salts with divalent cations, reduces the specific activity of Rs-AFP2. Seed-purified as well as yeast-expressed wild type Rs-AFP2 served as a control in the assays.
The relative specific activity is expressed as the specific activity of the mutant divided by the specific activity of yRs-AFP2 and multiplied by 100. […] The specific activity was measured in medium SMF−and SMF+.
Deviations are given as standard error of the mean (sem) based on the triplicate experiments. In SMF−, the medium without added salts, most of the derivatives show no decrease or only a minor decrease in antifungal activity, while in SMF+, the medium with added salts, there is a significant decrease in antifungal activity for several Rs-AFP2 isoforms.

F culmorum [2] = experiment: Growth inhibition in SMF with varying CaCl2 or KCl (FIG. 7)
Experimental: Their antifungal activity was determined in SMF with increasing Ca^2+ or K^+ concentration and compared with that of plant-derivable wild type Rs-AFP2 (isolated from seed) as well as yeast purified Rs-AFP2. FIG. 7 is a graph of the percentage growth inhibition of F culmorum caused by 10 μg/ml of yeast-purified Rs-AFP2 (SEQ ID NO: 20) (open circles), seed-purified Rs-AFP2 (SEQ ID NO: 77) (closed circles), Rs-AFP2/G9R (SEQ ID NO: 38) (squares) and Rs-AFP2/V39R (SEQ ID NO: 43) (triangles) in a medium consisting of SMF with varying concentrations of CaCl2 (panel A) and KCl (panel B).

Alternaria brassicicola = experiment: Antifungal activity in three media differing in ionic strength (Table 3)
Experimental: (§1) The antifungal activity of the G9R and V39R Rs-AFP2 isoforms was also assessed on a set of seven different phytopathogenic fungi in three media differing in ionic strength: SMF−, SMF plus 1 mM CaCl2 and 50 mM KCl, and SMF plus 5 mM CaCl2 and 50 mM KCl. The fungi tested were: Alternaria brassicicola, Ascochyta pisi, Botrytis cinerea, Fusarium culmorum, Nectria haematococca, Phoma betae and Verticillium dahliae.

Ascochyta pisi = experiment: as above
Experimental: as §1

Botrytis cinerea = experiment: as above
Experimental: as §1

Fusarium culmorum = experiment: as above
Experimental: as §1

Nectria haematococca = experiment: as above
Experimental: as §1

Phoma betae = experiment: as above; conditions: 72 hours
Experimental: as §1

Verticillium dahliae = experiment: as above
Experimental: as §1

[3] = SMF plus 1 mM CaCl2 and 50 mM KCl

Substance: yRs-AFP2/G9R: yeast-expressed Rs-AFP2 isoform, position 9 glycine to arginine (QKLCQRPSRTWSGVCGNNNACKNQCIRLEKARHGSCNYVFPAHKCICYFPC; listed as Raphanus sativus)
- RELATIVE SPECIFIC ACTIVITY (%) IN MEDIUM SMF+ (F culmorum [1]; 1/IC50 of mutant divided by that of yRs-AFP2 x 100, 48 hour incubation, SMF with 1 mM CaCl2 and 50 mM KCl, preliminary tests): 285%
- RELATIVE SPECIFIC ACTIVITY (%) IN MEDIUM SMF− (F culmorum [1]; 1/IC50 of mutant divided by that of yRs-AFP2 x 100, 48 hour incubation, low ionic strength medium, preliminary tests): 116%
- IC50 SMF+ (F culmorum [1]; 72 hours growth, high salt medium (1 mM CaCl2, 50 mM KCl), triplicate): 3.3
- IC50 SMF− (F culmorum [1]; 72 hours growth, low salt medium, triplicate): 3.0
- antifungal activity in SMF+ relative to wild-type Rs-AFP2 (F culmorum [1]; SMF+): approximately two-fold higher
- antifungal activity compared with yRs-AFP2 in high salt (SMF+), in words (F culmorum [1]; Table 1 tests): approximately three times more active than yRs-AFP2
- antifungal activity compared with yRs-AFP2 in low salt (SMF−), in words (F culmorum [1]; Table 1 tests): not so significantly different in low salt
- effect of substitution on antifungal activity in SMF+, in words (F culmorum [1]; Table 2 tests, high salt medium): increased antifungal activity
- effect of substitution on antifungal activity in SMF−, in words (F culmorum [1]; Table 2 tests, low salt medium): little effect on the antifungal activity
- relative specific antifungal activity (1/IC50), FIG. 6, in words (F culmorum [1]; medium SMF+, Rs-AFP2 set at 100): particularly active
- reduction of antifungal activity by cations, compared with wild-type Rs-AFP2 (F culmorum [2]; FIG. 7): less reduced by the presence of cations
- activity in the presence of 100 mM KCl (F culmorum [2]; SMF with 100 mM KCl, FIG. 7, 10 μg/ml): fully inhibitory
- growth inhibition in the presence of 5mM CaCl2 (F culmorum [2]; protein 10 μg/ml, SMF with 5mM CaCl2): complete inhibition
- IC50 VALUES, A brassicicola, SMF + 1 mM CaCl2/50 mM KCl (Alternaria brassicicola; 72 hours): >50 µg/mL
- IC50 VALUES, A brassicicola, SMF + 5 mM CaCl2/50 mM KCl (Alternaria brassicicola; 72 hours): >100 µg/mL
- IC50 VALUES, A brassicicola, SMF (Alternaria brassicicola; SMF−, 72 hours): 2.6 µg/mL
- activity against A brassicola compared with Rs-AFP2, in words (Alternaria brassicicola; Table 3 data): comparable to the activity of Rs-AFP2
- IC50 VALUES, A pisi, SMF + 1 mM CaCl2/50 mM KCl (Ascochyta pisi; 72 hours): >50 µg/mL
- IC50 VALUES, A pisi, SMF + 5 mM CaCl2/50 mM KCl (Ascochyta pisi; 72 hours): >100 µg/mL
- IC50 VALUES, A pisi, SMF (Ascochyta pisi; SMF−, 72 hours): 1.6 µg/mL
- activity against A pisi compared with Rs-AFP2, in words (Ascochyta pisi; Table 3 data): comparable to the activity of Rs-AFP2
- IC50 VALUES, B cinerea, SMF + 1 mM CaCl2/50 mM KCl (Botrytis cinerea; 72 hours): >50 µg/mL
- IC50 VALUES, B cinerea, SMF + 5 mM CaCl2/50 mM KCl (Botrytis cinerea; 72 hours): >100 µg/mL
- IC50 VALUES, B cinerea, SMF (Botrytis cinerea; SMF−, 72 hours): 1.9 µg/mL
- activity against B cinerea compared with Rs-AFP2, in words (Botrytis cinerea; Table 3 data): comparable to the activity of Rs-AFP2
- IC50 VALUES, F culmorum, SMF + 1 mM CaCl2/50 mM KCl (Fusarium culmorum; 96 hours): 1.5 µg/mL
- IC50 VALUES, F culmorum, SMF + 5 mM CaCl2/50 mM KCl (Fusarium culmorum; 96 hours): 7.2 µg/mL
- fold activity relative to Rs-AFP2 against F culmorum (Fusarium culmorum; [3]): approximately three-fold more active
- IC50 VALUES, F culmorum, SMF (Fusarium culmorum; SMF−, 96 hours): 2.2 µg/mL
- IC50 VALUES, N haematococca, SMF + 1 mM CaCl2/50 mM KCl (Nectria haematococca; 72 hours): 16.0 µg/mL
- IC50 VALUES, N haematococca, SMF + 5 mM CaCl2/50 mM KCl (Nectria haematococca; 72 hours): 100 µg/mL
- fold activity relative to Rs-AFP2 against N haematococca (Nectria haematococca; [3]): approximately three-fold more active
- IC50 VALUES, N haematococca, SMF (Nectria haematococca; SMF−, 72 hours): 2.0 µg/mL
- IC50 VALUES, P betae, SMF + 1 mM CaCl2/50 mM KCl (Phoma betae): 2.50 µg/mL
- IC50 VALUES, P betae, SMF + 5 mM CaCl2/50 mM KCl (Phoma betae): >100 µg/mL
- IC50 VALUES, P betae, SMF (Phoma betae; SMF−): 2.0 µg/mL
- IC50 VALUES, V dahliae, SMF + 1 mM CaCl2/50 mM KCl (Verticillium dahliae; 96 hours): 4.0 µg/mL
- IC50 VALUES, V dahliae, SMF + 5 mM CaCl2/50 mM KCl (Verticillium dahliae; 96 hours): 17.0 µg/mL
- fold activity relative to Rs-AFP2 against V dahliae (Verticillium dahliae; [3]): approximately three-fold more active
- IC50 VALUES, V dahliae, SMF (Verticillium dahliae; SMF−, 96 hours): 0.5 µg/mL
